Assay results as given in patent US20240148747A1, “SMALL MOLECULE ACTIVATORS OF YAP TRANSCRIPTIONAL ACTIVITY FOR REGENERATIVE ORGAN REPAIR” (THE SCRIPPS RESEARCH INSTITUTE, priority 2021, published 2024).
Like-named read-outs stand apart in the source and are kept apart here.

How the values were obtained:
YAP = assay: TEAD-LUC activation assay (293A-TEAD-LUC reporter); format: cell-based; conditions: Homo sapiens
Excerpt: More specifically, we used a 293A cell line harboring a stably integrated cassette containing 8 copies of the TEAD binding element upstream of luciferase (8xGTII-LUC). These cells retain responsiveness to contact inhibition-induced decreases in YAP transcriptional output.^6 The TEAD-responsive reporter assay (called 293A-TEAD-LUC throughout) was adapted to 1536-well format and then used to screen a library of ˜738k compounds for YAP-inducing activity.
Additional compounds of the present disclosure were subjected to the assay described above.

[1] = system: YAP-controlled transcripts (ANRKD1, CYR61, CTGF); assay: YAP-controlled transcript levels in 293A and other human cell lines; format: cell-based
YAP and TEAD proteins = assay: YAP-TEAD association and YAP nuclear localization in cells; format: cell-based
[2] = system: primary mouse epidermal keratinocytes; assay: Colony formation of primary mouse epidermal keratinocytes on dermal feeder layer; format: cell-based; conditions: 10-day growth period on dermal feeder layer
Excerpt: We evaluated the proliferative response of primary cells and tissues to compound 13 treatment. […] In addition, compound 13 treatment allowed for the secondary re-plated expansion of Rhodamine B-stained keratinocytes and the time-dependent expression of YAP-driven transcript Cyr61 (FIGS. 2A-C).

[3] = system: epidermis of wildtype adult C57BL/6 mice; assay: Topical application to dorsal skin of C57BL/6 mice (epidermal remodeling); format: in vivo, mouse
Method: When applied topically to the dorsal skin of wildtype adult C57BL/6 mice over the course of ten days, compound 13 (10 uM) promoted a dramatic expansion of keratinocytes and K14-positive precursors as assessed by […] and anti-K14 histological staining at study end (FIG. 2D).
(§1) Compound 13 treatment, in an exemplary embodiment, promotes wound healing in human cells and induces a pro-proliferative effect on keratinocytes in the human skin surrogate species, the Yucatan mini pig. Accordingly, there was developed a gel-based formulation of compound 13, which allows for its stable room temperature storage and its topical delivery in high concentrations (up to about 1.5 weight percent).

Yucatan mini-pig skin = assay: Topical delivery in the Yucatan mini pig; format: in vivo
Excerpt: as §1

human skin equivalents = assay: Wound healing in human skin equivalents (3 mm full thickness wound); format: cell-based
Excerpt: as §1

[4] = Cytotoxicity in the TEAD-LUC activation assay; conditions: human
in vitro = conditions: human
[5] = Table 4, read-out: TEAD-LUC activation assay EC50

EC50 (YAP; [5]) | SMILES | IC50 [4] | other results
 | O=C(NCCCc1nccs1)c1cc(-c2ccccc2)on1 [Compound 13, 5-phenyl-N-(3-(thiazol-2-yl)propyl)isoxazole-3-carboxamide] | 13.7 µM | EC50 (YAP; Table 3, read-out: TEAD-LUC activation assay EC50): 1 µM; EC50 (YAP; absence of serum, high cell density, read-out: EC50 of luciferase activity induction in 293A-TEAD-LUC cells): 1.6 µM; EC50 (YAP; presence of serum, high cell density, read-out: EC50 of luciferase activity induction in 293A-TEAD-LUC cells): 1.5 µM; levels of YAP-controlled transcripts (ANRKD1, CYR61, CTGF) ([1]; 293A cells and MCF-10A, HEK293T, H69, HaCaT): robustly increased; levels of YAP itself (YAP1) ([1]; 293A cells and other human cell lines): did not augment; association of YAP and TEAD proteins in cells (YAP and TEAD proteins): dose-dependently promoted; nuclear localization of YAP (YAP and TEAD proteins; in response to increased cell density): induced the nuclear localization of YAP; colony forming potential [2]: ~10 fold; YAP-dependent transcripts Ctgf, Cyr61, and Ankrd1 ([3]; endpoint of the experiment): robust upregulation; epidermal thickening, gel-based formulation versus drug in acetone or DMSO ([3]; topical delivery, mouse): to a more significant degree; epidermal thickness ([3]; topical, ten days, 10 uM, wildtype mice): approximate doubling; KI-67 positive keratinocytes ([3]; topical, ten days, study end): substantially increased; epidermal hyperplasia, dermal hyperplasia, YAP-dependent gene expression (Yucatan mini-pig skin): promoted epidermal hyperplasia, dermal hyperplasia, and YAP-dependent gene expression; keratinocyte hyperplasia and wound contraction (human skin equivalents): promoted the hyperplasia of keratinocytes and promoted wound contraction
10 µM | O=C(NC1CCCc2ccccc21)c1cc(-c2ccccc2)n[nH]1 (stereo not shown) [Compound 151] | > 20 µM | 
10 µM | CCN1C(=O)CCc2cc(NC(=O)c3cccc(Br)c3)ccc21 [Compound 152] | > 20 µM | 
> 20 µM | CC(=O)c1ccc(NC(=O)c2cc(-c3ccncc3)[nH]n2)cc1 [Compound 153] | > 20 µM | 
2 µM | N#Cc1cccc(NC(=O)c2cc(-c3ccncc3)[nH]n2)c1 [Compound 154] | > 20 µM | 
5 µM | CCc1cccc(NC(=O)C2CCN(C(=O)c3cc(-c4ccncc4)[nH]n3)CC2)c1 [Compound 155] | > 20 µM | 
5 µM | Cc1ccc(N2CC(C(=O)NCc3n[nH]c4ccccc34)CC2=O)cc1 (stereo not shown) [Compound 156] | > 20 µM | 
10 µM | COc1ccc2cc(NC(=O)c3n[nH]c4c3CCCCC4)cnc2c1 [Compound 157] | > 20 µM | 

SMILES | EC50 (YAP; [5]) | IC50 [4] | other results
CN1[C@H]2CC[C@@H]1CN(C(=O)c1cc(-c3ccccc3)on1)CC2 [Compound 129] | > 20 µM |  | IC50 (in vitro): > 20 µM
